Laboratory results reported in patent US6303761A, “Triaminepentaacetic acid compound and paramagnetic metal complex prepared from using the compound as ligand” (Department of Health The Executive Yuan, Republic of China, priority 1999, dated 2001).
Several values for one entry are separate records, joined by “and”; a condition that tells them apart may be missing. Equal entries are not always repeated. Where two headings read alike, the source gives them in different places.

Tests used:
[1] = pM value, Gd^3+; conditions: pH 7.4, TL 1.1×10^-5, TM 1.0×10^-6 mol dm^-3
[2] = pM value, Cu^2+; conditions: pH 7.4, TL 1.1×10^-5, TM 1.0×10^-6 mol dm^-3
[3] = pM value, Zn^2+; conditions: pH 7.4, TL 1.1×10^-5, TM 1.0×10^-6 mol dm^-3
[4] = pM value, Ca^2+; conditions: pH 7.4, TL 1.1×10^-5, TM 1.0×10^-6 mol dm^-3
[5] = Inner-sphere water molecules (Dy(III)-induced ^17 O-NMR chemical shift, X-ray, deduction); type: physicochemical
Experimental: The chemical shift (d.i.s.) of the Dy(III)-induced ^17 O is determined by ^17 O-NMR. The relationship between the Dy(III) complex concentration and d.i.s. is shown in equation (14)
d.i.s.=qΔ[Dy(ligand)n ](H2 O)q /[H2 O] (14)
The slope of equation (14) is qΔ/[H2 O], and q refers to the inner-sphere water molecule. […] It is known that Dy(III) can bind with eight water molecules at low concentration, and q is in a linear relationship with the slope.

[6] = cited from earlier work; for LD50: in vivo
[7] = cited from earlier work
[8] = Thermodynamic and conditional stability constants of the Ca^2+ complexes (potentiometric titration, program BEST); type: physicochemical; conditions: 25.0 ± 0.1° C., aqueous Me4 NNO3, I = 0.10 mol dm^-3
Experimental: (§1) The pH electrode was calibrated using two standard buffer solutions with pH 7.0±0.05 and pH 4.0±0.05 respectively. The ionic strength was 0.10 mol dm^-3 Me4 NNO3 ((CH3)4 NNO3). […] The titrant used was 0.1 mol dm^-3 NaOH with a titration amount of 0.005 ml/time.
(§2) (1) Direct Potentiometric Titration: The metal ion and ligand is mixed in 1:1 molar ratio.
(§3) (2) Ligand-ligand Competition Titration: The metal ion, ligand, and EDTA is mixed in 1:1:1 molar ratio.
(§4) M: metal ion, L: organic ligand, ML: metal complex The conditional stability constant is defined by equation (2): [formula]
(§5) The relationship between the conditional stability constant and the thermodynamic stability constant is defined by equation (3): [formula]
(§6) K2^H [H^+ ]^2 + . . . }^-1 =KthermαH

[9] = Protonation constants of the organic ligands (potentiometric titration, program PKAS); type: physicochemical; conditions: for pKa: aqueous me4nno3, 25.0 ± 0.1° C., aqueous Me4 NNO3, I = 0.10 mol dm^-3
Experimental: The ionic strength was 0.10 mol dm^-3 Me4 NNO3 ((CH3)4 NNO3). […] The titrant used was 0.1 mol dm^-3 NaOH with a titration amount of 0.005 ml/time.

[10] = Thermodynamic and conditional stability constants of the Cu^2+ complexes (potentiometric titration, program BEST); type: physicochemical; conditions: 25.0 ± 0.1° C., aqueous Me4 NNO3, I = 0.10 mol dm^-3
Experimental: as §1, §2, §3, §4, §5, §6

[11] = Thermodynamic and conditional stability constants of the Zn^2+ complexes (potentiometric titration, program BEST); type: physicochemical; conditions: 25.0 ± 0.1° C., aqueous Me4 NNO3, I = 0.10 mol dm^-3
Experimental: as §1, §2, §3, §4, §5, §6

[12] = Species distribution of the ligands at various pH values (SPE, SPEPLOT); type: physicochemical; conditions: 7.0×10^-3 mol dm^-3 system
Excerpt: The average difference between observed and calculated -log[H^+ ] was <0.04 throughout all titrations.
When pH=7.0, the concentration of [H2 L]^3- is the maximum (97.5%). In the pH 3-5 range, the dominant species is the third protonated species [H3 L]^2-. When pH=3.7, the concentration of [H3 L]^2- is the maximum (87.75%). […] When pH=9.8, the concentration of [HL]^4- is the maximum (77.5%). In the pH 2-3 range, the dominant species is the fourth protonated species [H4 L]^-. When pH=2.3, the concentration of [H4 L]^- is the maximum (60.9%). In the pH range greater than 11, the dominant species is the deprotonated species [L]^5-.
When pH=2.7, the concentration of [H4 L]^- is the maximum (55.9%). In the pH 3.5-7 range, the dominant species is the third protonated species [H3 L]^2-. When pH=5, the concentration of [H3 L]^2- is the maximum (97.7%). In the pH 7-9 range, the dominant species is the second protonated species [H2 L]^3-. When pH=8.1, the concentration of [H2 L]^3- is the maximum (86.5%). […] When pH=9.9, the concentration of [HL]^4- is the maximum (71.6%). In the pH range greater than 12, the dominant species is the deprotonated species [L]^5-. In the pH range less than 2, the dominant species is the totally protonated species [H5 L].
When pH=2.8, the concentration of [H4 L]^- is the maximum (45.9%). In the pH 3.5-7.5 range, the dominant species is the third protonated species [H3 L]^2-. When pH=5.2, the concentration of [H3 L]^2- is the maximum (99.0%). In the pH 8-9.5 range, the dominant species is the second protonated species [H2 L]^3-. When pH=8.6, the concentration of [H2 L]^3- is the maximum (78.8%). In the pH 9.5-11 range, the dominant species is the first protonated species [HL]^4-. When pH=10.1, the concentration of [HL]^4- is the maximum (67.2%). In the pH range greater than 12, the dominant species is the deprotonated species [L]^5-. In the pH range less than 2, the dominant species is the totally protonated species [H5 L].

[13] = Selectivity constant of the ligand for Gd^3+ over Ca^2+; type: physicochemical
[14] = type: physicochemical; conditions: pH 7.4, plasma concentrations of Ca^2+, Cu^2+ and Zn^2+
[15] = Relaxivity R1 and its pH dependence; conditions: pH 6.3 ± 0.1
[16] = read-out: first protonation constant log K1^H, [HL]/[L][H]
[17] = read-out: fourth protonation constant log K4^H, [H4 L]/[H3 L][H]
[18] = read-out: second protonation constant log K2^H, [H2 L]/[HL][H]
[19] = read-out: third protonation constant log K3^H, [H3 L]/[H2 L][H]
[20] = 25.0 ± 0.1° C., aqueous Me4 NNO3, I = 0.10 mol dm^-3

O=C(O)CN(CCN(CC(=O)O)CC(=O)O)CCN(CC(=O)O)CC(=O)O [DTPA, diethylenetriaminepentaacetic acid, reference compound]
pM (Gd^3+) [1]: 17.14 | conditional stability constant log KGdL' (pH 7.4): 18.14 | pM (Cu^2+) [2]: 16.06 | pM (Zn^2+) [3]: 13.39 | pM (Ca^2+) [4]: 5.45

[Cl][Dy]([Cl])[Cl] [DyCl3]
slope of d.i.s. versus Dy(III) complex concentration ([5]; ^17 O-NMR, FIG. 11): -445.6

[Cl][Gd]([Cl])[Cl] [GdCl3, gadolinium chloride]
LD50, intravenous, animal ([6]; intravenously injected to animal bodies): 0.3 to 0.5 mmol/kg

O=C(O)CN1CCCN(CC(=O)O)CCN(CC(=O)O)CCN(CC(=O)O)CCN(CC(=O)O)CCCN(CC(=O)O)CCN(CC(=O)O)CCN(CC(=O)O)CC1 [H8 HEC, 1,4,7,10,14,17,20,23-octaazacyclohexacosane-1,4,7,10,14,17,20,23-octaacetic acid]
water solubility of the bimetallic lanthanide complex [7]: higher water solubility

O=C(O)CN1CCN(CC(=O)O)CCN(CC(=O)O)CCN(CC(=O)O)CCN(CC(=O)O)CCN(CC(=O)O)CCN(CC(=O)O)CCN(CC(=O)O)CC1 [H8 OTEC, 1,4,7,10,13,16,19,22-octaazacyclotetracosane-1,4,7,10,13,16,19,22-octaacetic acid]
water solubility of the bimetallic lanthanide complex [7]: higher water solubility

O=C(O)CN(CCCCN(CC(=O)O)CC(=O)O)CCCN(CC(=O)O)CC(=O)O [TTEA, 3,7,12-tri(carboxymethyl)-3,7,12-triazatetradecanedioic acid]
complexation with metal ions, in words: very difficult to complex with metal ions | pM (Cu^2+) [2]: 12.63 | log K [CaHL]/[CaL][H] [8]: 8.2 | log K [CaL]/[Ca][L] [8]: 13.48 | pM (Zn^2+) [3]: 13.08 | basicity, Σ PKa [9]: 30.90 | pKa [9, 16]: 10.7 | pKa [9, 17]: 3.04 | pKa [9, 18]: 9.46 | pKa [9, 19]: 7.71 | pM (Ca^2+) [4]: 7.64 | log K [CuHL]/[CuL][H] [10]: 9.5 | log K [CuL]/[Cu][L] [10]: 17.33 | log K [ZnHL]/[ZnL][H] [11]: 4.7 | log K [ZnL]/[Zn][L] [11]: 19.91 | maximum concentration of first protonated species [HL]^4- [12]: 67.2% | maximum concentration of fourth protonated species [H4 L]^- [12]: 45.9% | maximum concentration of second protonated species [H2 L]^3- [12]: 78.8% | maximum concentration of third protonated species [H3 L]^2- [12]: 99.0% | pH of maximum concentration of [H2 L]^3- [12]: 8.6 pH | pH of maximum concentration of [H3 L]^2- [12]: 5.2 pH | pH of maximum concentration of [H4 L]^- [12]: 2.8 pH | pH of maximum concentration of [HL]^4- [12]: 10.1 pH | pH range in which [H2 L]^3- is dominant [12]: 8-9.5 pH | pH range in which [H3 L]^2- is dominant [12]: 3.5-7.5 pH | pH range in which [H4 L]^- is dominant [12]: 2.5-3.5 pH | pH range in which [HL]^4- is dominant [12]: 9.5-11 pH | pH range in which deprotonated species [L]^5- is dominant [12]: greater than 12 pH | pH range in which totally protonated species [H5 L] is dominant [12]: less than 2 pH

O=C(O)CN(CCCN(CC(=O)O)CC(=O)O)CCCN(CC(=O)O)CC(=O)O [TTRA, 3,7,11-tri(carboxymethyl)-3,7,11-triazatridecanedioic acid]
selectivity constant log K(Gd/Ca) [13]: 2.37 | pM (Gd^3+) [1]: 9.80 | log K [GdHL]/[GdL][H] [20]: 5.95 | log K [GdL]/[Gd][L] [20]: 15.89 | conditional stability constant log KGdL' (pH 7.4): 10.93 | pM (Cu^2+) [2]: 13.12 | log K [CaHL]/[CaL][H] [8]: 8.02 | log K [CaL]/[Ca][L] [8]: 13.52 | modified selectivity constant log K sel' [14]: 2.64 | pM (Zn^2+) [3]: 13.67 | basicity, Σ PKa [9]: 29.85 | pKa [9, 16]: 10.6 | pKa [9, 17]: 3.1 | pKa [9, 18]: 9.12 | pKa [9, 19]: 7 | pM (Ca^2+) [4]: 8.20 | log K [CuHL]/[CuL][H] [10]: 8.68 | log K [CuL]/[Cu][L] [10]: 17.92 | log K [ZnHL]/[ZnL][H] [11]: 4.15 | log K [ZnL]/[Zn][L] [11]: 19.37 | maximum concentration of first protonated species [HL]^4- [12]: 71.6% | maximum concentration of fourth protonated species [H4 L]^- [12]: 55.9% | maximum concentration of second protonated species [H2 L]^3- [12]: 86.5% | maximum concentration of third protonated species [H3 L]^2- [12]: 97.7% | pH of maximum concentration of [H2 L]^3- [12]: 8.1 pH | pH of maximum concentration of [H3 L]^2- [12]: 5 pH | pH of maximum concentration of [H4 L]^- [12]: 2.7 pH | pH of maximum concentration of [HL]^4- [12]: 9.9 pH | pH range in which [H2 L]^3- is dominant [12]: 7-9 pH | pH range in which [H3 L]^2- is dominant [12]: 3.5-7 pH | pH range in which [H4 L]^- is dominant [12]: 2-3.5 pH | pH range in which [HL]^4- is dominant [12]: 9.5-10.5 pH | pH range in which deprotonated species [L]^5- is dominant [12]: greater than 12 pH | pH range in which totally protonated species [H5 L] is dominant [12]: less than 2 pH

O=C([O-])CN1CCN(CC(=O)[O-])CCN(CC(=O)[O-])CCN(CC(=O)[O-])CC1.[Dy+3] [[Dy(DOTA)]^-]
q (inner-sphere water) ([5]; Dy(III)-induced ^17 O-NMR shift): 0.8 | inner-sphere water molecules ([5]; ^17 O-NMR): only one

CNC(=O)CN(CCN(CCN(CC(=O)[O-])CC(=O)NC)CC(=O)[O-])CC(=O)[O-].[Gd+3] [[Gd(DTPA-BMA)], diethylenetriamine pentaacetic acid bis(methylamide)-gadolinium(III)]
conditional stability constant (log Kcond) (pH 4.0): 11.25 | stability constant under physiological conditions (pH 7.4) (pH 7.4): 16.95 | modified selectivity constant log K sel' [14]: 9.03 | LD50 [6]: 14.8 mmol/kg | inner-sphere water molecule by X-ray single crystal analysis ([5]; X-ray single crystal analysis): one | Relaxivity R1 [15]: 3.74 dm^3 mmol^-1 s^-1 and 3.74 ± 0.05 dm^3 mmol^-1 s^-1

N,N-bis(2-pyridylmethyl)diethylenetriamine-N,N',N"-triacetate-gadolinium(III) [[Gd(DTPA-BP)]]
LD50 [6]: 3.2 mmol/kg
